Reference: patent US10689429B2, “Double-acylated GLP-1 compounds” (Novo Nordisk A/S, priority 2014, dated 2020)
Where two headings read alike, the source gives them in different places. *1 amine or outer side, *2 acyl side, *3 side chain or, on linkers, in order; H or OH if unused. Where a SMILES comes first, the peptide text is derived from it. Where no end group is shown, it is not given here. Side-chain parts run from the residue outwards. [ ]: non-standard residue; d: D form. The star is where a group is joined. Undecanoyl(11-OPh(4-COOH)) = O=C(O)c1ccc(OCCCCCCCCCCC(=O)*)cc1; Decanoyl(10-O(3-COOH-Ph)) = O=C(O)c1cccc(OCCCCCCCCCC(=O)*)c1; γGlu = O=C(O)[C@H](CCC(=O)[*:2])N[*:1]; C14 diacid = O=C(O)CCCCCCCCCCCCC(=O)*; AEEA = NCCOCCOCC(=O)O; Aib = CC(C)(N)C(=O)O

How the values were obtained:
human GLP-1 receptor [1] = target: T1, human GLP-1 receptor (Homo sapiens, UniProt P43220); experiment: GLP-1 receptor binding, competitive 125I-GLP-1 SPA binding assay on isolated membranes; conditions: low HSA (max. 0.001% final assay concentration)
T1 construct: expressed in transfected cells; host or cells: membranes from BHK cells, parent line BHKTS13, clone FCW467-12A

human GLP-1 receptor [2] = target: T1, human GLP-1 receptor; experiment: In vitro potency, CRE luciferase reporter gene assay in BHK cells expressing the human GLP-1 receptor; type: cell-based; conditions: average of duplicates;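 also: firefly luciferase luminescence read after 3 h incubation at 37 °C, compounds tested in an eight-point series from 0.01 pM to 100 nM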
Target sequence in this assay (P43220 24-463): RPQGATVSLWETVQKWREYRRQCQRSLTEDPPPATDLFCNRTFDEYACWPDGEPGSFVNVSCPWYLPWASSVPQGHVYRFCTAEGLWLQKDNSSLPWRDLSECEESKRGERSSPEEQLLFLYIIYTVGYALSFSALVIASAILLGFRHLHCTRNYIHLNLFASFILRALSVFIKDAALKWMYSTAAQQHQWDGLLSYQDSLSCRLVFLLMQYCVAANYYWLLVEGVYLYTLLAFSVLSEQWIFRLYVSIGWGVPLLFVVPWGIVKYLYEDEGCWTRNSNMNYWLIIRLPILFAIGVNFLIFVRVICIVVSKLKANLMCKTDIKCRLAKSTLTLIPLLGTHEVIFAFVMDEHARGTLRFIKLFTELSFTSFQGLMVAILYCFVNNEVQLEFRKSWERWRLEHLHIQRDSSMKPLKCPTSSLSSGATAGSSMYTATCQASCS
Experimental: The in vitro potency is the measure of human GLP-1 receptor activation in a whole cell assay.
In vitro potency was determined by measuring the response of the human GLP-1 receptor in a reporter gene assay. The assay was performed in a stably transfected BHK cell line that expresses the human GLP-1 receptor and contains the DNA for the cAMP response element (CRE) coupled to a promoter and the gene for firefly luciferase (CRE luciferase). When the human GLP-1 receptor is activated it results in the production of cAMP, which in turn results in the luciferase protein being expressed. When assay incubation is completed the luciferase substrate (luciferin) is added and the enzyme converts luciferin to oxyluciferin to produce bioluminescence. The luminescence is measured as the readout for the assay.
An increase of the in vitro potency, EC50 value, in the presence of serum albumin would indicate an affinity to serum albumin and represents a method to predict a protracted pharmacokinetic profile of the test substance in animal models.
The cells were cultured at 5% CO2 in Cell Culture Medium. They were aliquoted and stored in liquid nitrogen. Before each assay an aliquot is taken up and washed twice in PBS before being suspended at the desired concentration in the assay specific buffer. For 96-well plates the suspension was made to give a final concentration of 5×10^3 cells/well.
Assay Medium consisted of DMEM w/o phenol red, 10 mM Hepes and 1× Glutamax. The 1% Assay Buffer consisted of 2% ovalbumin, 0.2% Pluronic F-68 and 2% HSA in Assay Medium. The 0% Assay Buffer consisted of 2% ovalbumin and 0.2% Pluronic F-68 in Assay Medium.
1) Cell stocks were thawed in a 37° C. water bath.
2) Cells were washed three times in PBS.
3) The cells were counted and adjusted to 5×10^3 cells/50 μl (1×10^5 cells/ml) in Assay Medium. A 50 μl aliquot of cells was transferred to each well in the assay plate.
4) Stocks of the test compounds and reference compounds were diluted to a concentration of 0.2 pM in 0% Assay Buffer for the 0% HSA CRE luciferase assay and 1% Assay Buffer for the 1% HSA CRE luciferase assay. […] Compounds were tested at the following final concentrations: 1×10^−7 M, 1×10^−8 M; 1×10^−9 M, 1×10^−10 M, 1×10^−11 M, 1×10^−12 M, 1×10^−13 M, and 1×10^−14 M. 6) The assay plate was incubated for 3 h in a 5% CO2 incubator at 37° C. […] 8) A 100 μl aliquot of steadylite plus reagent was added to each well of the assay plate (reagent was light sensitive). 9) Each assay plate was covered with aluminum foil to protect it from light and shaken for 30 min at room temperature. 10) Each assay plate was read in a Packard TopCount NXT instrument. Calculations and Results
The data from the TopCount instrument were transferred to GraphPad Prism software. The software performs a non-linear regression (log(agonist) vs response).
A minimum of two replicates was measured for each sample on separate assay plates. The reported values are averages of the duplicates. For some examples more than one assay was run and in this case the data reported are the averages of the averaged duplicates.

[3] = Pharmacokinetic study in mini pigs after i.v. administration; type: in vivo; conditions: female, Göttingen, pig, plasma, iv, 2 nmol/kg; read-out: Minipig iv PK, t½ (converted)
Experimental: The purpose of this study is to determine the protraction in vivo of the GLP-1 derivatives after i.v. administration to mini pigs, i.e. the prolongation of their time in the body and thereby their time of action. This was done in pharmacokinetic (PK) studies, where the terminal half-life of the derivative in question was determined. By terminal half-life is generally meant the period of time it takes to halve a certain plasma concentration, measured after the initial distribution phase.
Female Göttingen mini pigs obtained from Ellegaard Göttingen Minipigs (Dalmose, Denmark) at approximately 5 months of age and weighing approximately 10 kg were used in the studies. The mini pigs were housed in pens with straw as bedding, four to six together in each pen and fed restrictedly once or twice daily with Altromin 9023 mini pig diet (Chr. Petersen A/S, DK-4100 Ringsted). The pigs were used for repeated pharmacokinetic studies with a suitable wash-out period between successive GLP-1 derivative dosings. An acclimatisation period of 1 week was allowed during which time the mini pigs were trained to be fixated on the back for blood sampling and in slings for i.v. dosing. All handling, dosing and blood sampling of the animals was performed by trained and skilled staff.
The GLP-1 derivatives were dissolved in 50 mM sodium phosphate, 70 mM sodium chloride, 0.05% tween 80, pH 7.4 to a concentration of approximately 20 nmol/ml. Intravenous injections (the volume corresponding to usually 2 nmol/kg, for example 0.1 ml/kg) of the compounds were given as intravenous injections via a Venflon inserted in an ear vein, while the animals were placed un-anaesthetised in a sling. The dose volume was 0.1 ml/kg, and blood was sampled at predefined time points for up till 13 days post dosing (samples were taken with a syringe from a jugular vein). Blood samples (for example 0.8 ml) were collected in EDTA buffer (8 mM) and then centrifuged at 4° C. and 2000 G for 10 minutes.
Individual plasma concentration-time profiles were analysed by a non-compartmental model in WinNonlin v. […] 6.2 or 6.3 (Pharsight Inc., Mountain View, Calif., USA), or other relevant software for PK analysis, and the resulting terminal half-lives determined.

human GLP-1 receptor [4] = target: T2, human GLP-1 receptor (human, UniProt P43220)
Target sequence in this assay (P43220 24-463): as above

human GLP-1 receptor [5] = target: T2, human GLP-1 receptor; experiment: displacement of [125I]-GLP-1-(7-36)NH2 from membranes with human GLP-1 receptor, SPA, low HSA (0.001%)
Experimental: (§1) Each derivative is added in a series of concentrations to isolated membranes containing the human GLP-1 receptor and displacement of the labelled ligand is monitored. The receptor binding is reported as the concentration at which half of the labelled ligand is displaced from the receptor, the $IC50$ value.
(§2) For the receptor binding assay in the presence of low HSA (0.001%) 50 μl of the assay buffer was added to each well of an assay plate. […] For the receptor binding assay in the presence of high HSA (2.0%) 50 μl of the 8% albumin stock was added to each well of an assay plate. […] Cell membrane aliquots were thawed and diluted to their working concentration. Fifty μl were added to each well in the assay plate. […] WGA SPA beads were suspended in assay buffer at 20 mg/ml. The suspension was diluted to 10 mg/ml in assay buffer just prior to addition to the assay plate. Fifty μl were added to each well in the assay plate. […] A 25 μl aliquot was reserved for measuring total counts/well. […] The assay plate was incubated for 2 h at 30° C. […] The assay plate was centrifuged for 10 min. […] The assay plate was read in a Packard TopCount NXT instrument.

human GLP-1 receptor [6] = target: T2, human GLP-1 receptor; experiment: displacement of [125I]-GLP-1-(7-36)NH2 from membranes with human GLP-1 receptor, SPA, high HSA (2.0%)
Experimental: as §1, §2

[7] = 0% HSA, read-out: EC50/pM (0% HSA)
[8] = EC50/pM (1% HSA), 1% HSA final assay concentration

Molecule | IC50 (human GLP-1 receptor [1]; read-out: IC50/nM (low HSA)) [nM] | EC50 (human GLP-1 receptor [2]; [7]) [pM] | EC50 (human GLP-1 receptor [2]; [8]) [pM] | half-life [3] [h] | IC50 (human GLP-1 receptor [1]; IC50/nM (low HSA)) [nM] | EC50 (human GLP-1 receptor [2]; EC50/pM (0% HSA), 0% HSA) [pM] | EC50/pM (0% HSA) (human GLP-1 receptor [4]) [pM] | EC50/pM (1% HSA) (human GLP-1 receptor [4]) [pM] | IC50 (human GLP-1 receptor [5]) [nM] | IC50 (human GLP-1 receptor [6]) [nM]
CC[C@H](C)[C@H](NC(=O)[C@H](Cc1ccccc1)NC(=O)[C@H](CCC(=O)O)NC(=O)[C@H](CCCNC(=N)N)NC(=O)[C@H](C)NC(=O)[C@H](C)NC(=O)[C@H](CCC(N)=O)NC(=O)[C@H](CCC(=O)O)NC(=O)[C@H](CCC(=O)O)NC(=O)[C@H](CC(C)C)NC(=O)[C@H](Cc1ccc(O)cc1)NC(=O)[C@H](CO)NC(=O)[C@H](CO)NC(=O)[C@@H](NC(=O)[C@H](CC(=O)O)NC(=O)[C@H](CO)NC(=O)[C@@H](NC(=O)[C@H](Cc1ccccc1)NC(=O)[C@@H](NC(=O)CNC(=O)[C@H](CCC(=O)O)NC(=O)C(C)(C)NC(=O)[C@@H](N)Cc1c[nH]cn1)[C@@H](C)O)[C@@H](C)O)C(C)C)C(=O)N[C@@H](C)C(=O)N[C@@H](Cc1c[nH]c2ccccc12)C(=O)N[C@@H](CC(C)C)C(=O)N[C@H](C(=O)N[C@@H](CCCNC(=N)N)C(=O)NCC(=O)N[C@@H](CCCCNC(=O)COCCOCCNC(=O)COCCOCCNC(=O)CC[C@H](NC(=O)CCCCCCCCCCCCC(=O)O)C(=O)O)C(=O)N[C@@H](CCCCNC(=O)COCCOCCNC(=O)COCCOCCNC(=O)CC[C@H](NC(=O)CCCCCCCCCCCCC(=O)O)C(=O)O)C(=O)O)C(C)C [Example 5, N{Epsilon-36}-[2-[2-[2-[[2-[2-[2-[[(4S)-4-carboxy-4-(13-carboxytridecanoylamino)butanoyl]amino]ethoxy]ethoxy]acetyl]amino]ethoxy]ethoxy]acetyl], N{Epsilon-37}-[2-[2-[2-[[2-[2-[2-[[(4S)-4-carboxy-4-(13-carboxytridecanoylamino)butanoyl]amino]ethoxy]ethoxy]acetyl]amino]ethoxy]ethoxy]acetyl]-[Aib8,Glu22,Arg26,Arg34,Lys36,Lys37]-GLP-1-(7-37)-peptide] | 0.2 | 1.1 | 22 | 99 | – | – | – | – | – | –
CC[C@H](C)[C@H](NC(=O)[C@H](Cc1ccccc1)NC(=O)[C@H](CCC(=O)O)NC(=O)[C@H](CCCNC(=N)N)NC(=O)[C@H](C)NC(=O)[C@H](C)NC(=O)[C@H](CCC(N)=O)NC(=O)[C@H](CCC(=O)O)NC(=O)[C@H](CCC(=O)O)NC(=O)[C@H](CC(C)C)NC(=O)[C@H](Cc1ccc(O)cc1)NC(=O)[C@H](CO)NC(=O)[C@H](CO)NC(=O)[C@@H](NC(=O)[C@H](CC(=O)O)NC(=O)[C@H](CO)NC(=O)[C@@H](NC(=O)[C@H](Cc1ccccc1)NC(=O)[C@@H](NC(=O)CNC(=O)[C@H](CCC(=O)O)NC(=O)C(C)(C)NC(=O)[C@@H](N)Cc1c[nH]cn1)[C@@H](C)O)[C@@H](C)O)C(C)C)C(=O)N[C@@H](C)C(=O)N[C@@H](Cc1c[nH]c2ccccc12)C(=O)N[C@@H](CC(C)C)C(=O)N[C@H](C(=O)N[C@@H](CCC(N)=O)C(=O)NCC(=O)N[C@@H](CCCCNC(=O)COCCOCCNC(=O)COCCOCCNC(=O)CC[C@H](NC(=O)CCCCCCCCCCOc1ccc(C(=O)O)cc1)C(=O)O)C(=O)N[C@@H](CCCCNC(=O)COCCOCCNC(=O)COCCOCCNC(=O)CC[C@H](NC(=O)CCCCCCCCCCOc1ccc(C(=O)O)cc1)C(=O)O)C(=O)O)C(C)C [Example 7] (H-H[Aib]EGTFTSDVSSYLEEQAAREFIAWLVQGK([AEEA-AEEA-γGlu-Undecanoyl(11-OPh(4-COOH))])K([AEEA-AEEA-γGlu-Undecanoyl(11-OPh(4-COOH))])-OH; N-terminus and C-terminus assumed) | – | – | 143 | 107 | 0.47 | 1.5 | – | – | – | –
CC[C@H](C)[C@H](NC(=O)[C@H](Cc1ccccc1)NC(=O)[C@H](CCC(=O)O)NC(=O)[C@H](CCCNC(=N)N)NC(=O)[C@H](C)NC(=O)[C@H](C)NC(=O)[C@H](CCC(N)=O)NC(=O)[C@H](CCC(=O)O)NC(=O)[C@H](CCC(=O)O)NC(=O)[C@H](CC(C)C)NC(=O)[C@H](Cc1ccc(O)cc1)NC(=O)[C@H](CO)NC(=O)[C@H](CO)NC(=O)[C@@H](NC(=O)[C@H](CC(=O)O)NC(=O)[C@H](CO)NC(=O)[C@@H](NC(=O)[C@H](Cc1ccccc1)NC(=O)[C@@H](NC(=O)CNC(=O)[C@H](CCC(=O)O)NC(=O)C(C)(C)NC(=O)[C@@H](N)Cc1c[nH]cn1)[C@@H](C)O)[C@@H](C)O)C(C)C)C(=O)N[C@@H](C)C(=O)N[C@@H](Cc1c[nH]c2ccccc12)C(=O)N[C@@H](CC(C)C)C(=O)N[C@H](C(=O)N[C@@H](CCCNC(=N)N)C(=O)NCC(=O)N[C@@H](CCCCNC(=O)COCCOCCNC(=O)COCCOCCNC(=O)CC[C@H](NC(=O)CCCCCCCCCOc1ccc(C(=O)O)cc1)C(=O)O)C(=O)N[C@@H](CCCCNC(=O)COCCOCCNC(=O)COCCOCCNC(=O)CC[C@H](NC(=O)CCCCCCCCCOc1ccc(C(=O)O)cc1)C(=O)O)C(=O)O)C(C)C [Example 3, N{Epsilon-36}-[2-[2-[2-[[2-[2-[2-[[(4S)-4-carboxy-4-[10-(4-carboxyphenoxy)decanoylamino]butanoyl]amino]ethoxy]ethoxy]acetyl]amino]ethoxy]ethoxy]acetyl], N{Epsilon-37}-[2-[2-[2-[[2-[2-[2-[[(4S)-4-carboxy-4-[10-(4-carboxyphenoxy)decanoylamino]butanoyl]amino]ethoxy]ethoxy]acetyl]amino]ethoxy]ethoxy]acetyl]-[Aib8,Glu22,Arg26,Arg34,Lys36,Lys37]-GLP-1-(7-37)-peptide] | – | – | 28 | 71 | 0.19 | 1.2 | – | – | – | –
CC[C@H](C)[C@H](NC(=O)[C@H](Cc1ccccc1)NC(=O)[C@H](CCC(=O)O)NC(=O)[C@H](CCCNC(=N)N)NC(=O)[C@H](C)NC(=O)[C@H](C)NC(=O)[C@H](CCC(N)=O)NC(=O)[C@H](CCC(=O)O)NC(=O)[C@H](CCC(=O)O)NC(=O)[C@H](CC(C)C)NC(=O)[C@H](Cc1ccc(O)cc1)NC(=O)[C@H](CO)NC(=O)[C@H](CO)NC(=O)[C@@H](NC(=O)[C@H](CC(=O)O)NC(=O)[C@H](CO)NC(=O)[C@@H](NC(=O)[C@H](Cc1ccccc1)NC(=O)[C@@H](NC(=O)CNC(=O)[C@H](CCC(=O)O)NC(=O)C(C)(C)NC(=O)[C@@H](N)Cc1c[nH]cn1)[C@@H](C)O)[C@@H](C)O)C(C)C)C(=O)N[C@@H](C)C(=O)N[C@@H](Cc1c[nH]c2ccccc12)C(=O)N[C@@H](CC(C)C)C(=O)N[C@H](C(=O)N[C@@H](CCCNC(=N)N)C(=O)NCC(=O)N[C@@H](CCCCNC(=O)COCCOCCNC(=O)CC[C@H](NC(=O)CC[C@H](NC(=O)CCCCCCCCCCCCC(=O)O)C(=O)O)C(=O)O)C(=O)N[C@@H](CCCCNC(=O)COCCOCCNC(=O)CC[C@H](NC(=O)CC[C@H](NC(=O)CCCCCCCCCCCCC(=O)O)C(=O)O)C(=O)O)C(=O)O)C(C)C [Example 13, N{Epsilon-36}-[2-[2-[2-[[(4S)-4-carboxy-4-[[(4S)-4-carboxy-4-(13-carboxytridecanoylamino)butanoyl]amino]butanoyl]amino]ethoxy]ethoxy]acetyl], N{Epsilon-37}-[2-[2-[2-[[(4S)-4-carboxy-4-[[(4S)-4-carboxy-4-(13-carboxytridecanoylamino)butanoyl]amino]butanoyl]amino]ethoxy]ethoxy]acetyl]-[Aib8,Glu22,Arg26,Arg34,Lys36,Lys37]-GLP-1-(7-37)-peptide] | 0.47 | 1.3 | 18 | 98 | – | – | – | – | – | –
CC[C@H](C)[C@H](NC(=O)[C@H](Cc1ccccc1)NC(=O)[C@H](CCC(=O)O)NC(=O)[C@H](CCCNC(=N)N)NC(=O)[C@H](C)NC(=O)[C@H](C)NC(=O)[C@H](CCC(N)=O)NC(=O)[C@H](CCC(=O)O)NC(=O)[C@H](CCC(=O)O)NC(=O)[C@H](CC(C)C)NC(=O)[C@H](Cc1ccc(O)cc1)NC(=O)[C@H](CO)NC(=O)[C@H](CO)NC(=O)[C@@H](NC(=O)[C@H](CC(=O)O)NC(=O)[C@H](CO)NC(=O)[C@@H](NC(=O)[C@H](Cc1ccccc1)NC(=O)[C@@H](NC(=O)CNC(=O)[C@H](CCC(=O)O)NC(=O)C(C)(C)NC(=O)[C@@H](N)Cc1c[nH]cn1)[C@@H](C)O)[C@@H](C)O)C(C)C)C(=O)N[C@@H](C)C(=O)N[C@@H](Cc1c[nH]c2ccccc12)C(=O)N[C@@H](CC(C)C)C(=O)N[C@H](C(=O)N[C@@H](CCCNC(=N)N)C(=O)NCC(=O)N[C@@H](CCCCNC(=O)COCCOCCNC(=O)COCCOCCNC(=O)COCCOCCNC(=O)CC[C@H](NC(=O)CCCCCCCCCCCCC(=O)O)C(=O)O)C(=O)N[C@@H](CCCCNC(=O)COCCOCCNC(=O)COCCOCCNC(=O)COCCOCCNC(=O)CC[C@H](NC(=O)CCCCCCCCCCCCC(=O)O)C(=O)O)C(=O)O)C(C)C [Example 12] | 0.2 | 1.2 | 10 | 80 | – | – | – | – | – | –
H[Aib]EGTFTSDVSSYLEEQAAREFIAWLVRGK([AEEA-AEEA-AEEA-AEEA-γGlu-C14 diacid])K([AEEA-AEEA-AEEA-AEEA-γGlu-C14 diacid]) [GLP-1 derivative of Example 20] | – | – | – | – | – | – | 2.7 | 5.8 | 0.81 | –
H[Aib]EGTFTSDVSSYLEEQAAREFIEWLVRGK([AEEA-AEEA-γGlu-Decanoyl(10-O(3-COOH-Ph))])K([AEEA-AEEA-γGlu-Decanoyl(10-O(3-COOH-Ph))]) [GLP-1 derivative of Example 27] | – | – | – | – | – | – | 13 | 105 | 0.66 | 478
H[Aib]EGTFTSDVSSYLEEQAAREFIAWLVRGK([AEEA-AEEA-γGlu-γGlu-C14 diacid])K([AEEA-AEEA-γGlu-γGlu-C14 diacid]) [GLP-1 derivative of Example 21] | – | – | – | – | – | – | 5.6 | 13 | 0.42 | 89
